Read-outs that look alike come from different tables or passages of the source. Square brackets hold non-standard residues; d marks the D form. Peptide text beside a SMILES is read from it. * marks the point of attachment. Dolaproine = CO[C@@H]([C@@H]1CCCN1)[C@@H](C)C(=O)O; Dil = CC[C@H](C)[C@H](NC)[C@@H](CC(=O)O)OC; NMe2Val = CC(C)[C@@H](C(=O)*)N(C)C; X1 = C[C@H](N)C(=O)OCCCN*
Tests used:
Assay type in all cases: cell-based
[1] = test system: HER2 expressing cells SKBR3; assay: Cell viability assay (Cell Titer-Glo), SKBR3
Method: (§1) PBRM-drug polymer conjugates were evaluated for their tumor viability using Cell Titer-Glo (Promega Corp). Cells were plated in black walled 96-well plate and allowed to adhere overnight at 37° C. in a humidified atmosphere of 5% CO2. HER2 expressing cells SKBR3, BT474, NCI-N87 and cells expressing low levels of HER2-MCF7 were plated at a density of 5,000 cells per well. The next day the medium was replaced with 50 μL fresh medium and 50 μL of 2× stocks of PBRM-drug polymer conjugate, drug polymer conjugate or drug were added to appropriate wells, mixed and incubated for 72 h. Cell Titer-Glo reagent was added to the wells at room temperature and the luminescent signal was measured after 10 min using a SpectraMax M5 plate reader (Molecular Devices). Dose response curves were generated using SoftMax Pro software. IC50 values were determined from four-parameter curve fitting.

[2] = test system: HER2 expressing cells BT474; assay: Cell viability assay (Cell Titer-Glo), BT474; details: read-out: BT474 IC50
Method: as §1

[3] = test system: cells expressing low levels of HER2-MCF7; assay: Cell viability assay (Cell Titer-Glo), MCF7
Method: as §1

[4] = test system: HER2 expressing cells NCI-N87; assay: Cell viability assay (Cell Titer-Glo), NCI-N87; details: read-out: N87 IC50
Method: as §1

[5] = Table XIII, 72 h, conjugates with high drug loading, read-out: SKBR3 IC50
[6] = Table XIII, 72 h, conjugates with high drug loading
[7] = Table XIII, 72 h, conjugates with high drug loading, read-out: MCF7 IC50
[8] = Table XII, 72 h, conjugates with PBRM MW<80 kDa, read-out: SKBR3 IC50
[9] = Table XII, 72 h, conjugates with PBRM MW<80 kDa, read-out: MCF7 IC50
[10] = Homo sapiens, MCF7, 72 h, read-out: MCF7 IC50, Table II

Q: What does the source list for “47 kDa PHF-BA-(AF HPA-L-Alanine)-SS-Rituximab [Example 94, Conjugate D]”?
A: IC50 [1, 5]: 0.26 nM; IC50 [2, 6]: 1.1 nM; IC50 [3, 7]: 8.8 nM; IC50 [4, 6]: 10.9 nM

Q: What does the source list for “105 kDa PHF-BA (AF HPA-L-Alanine)-SS-(Trastuzumab-Fab′) [Example 96 Conjugate A]”?
A: IC50 [1, 8]: 0.6 nM; IC50 [3, 9]: > 100 nM

Q: What does the source list for `CCC1(O)C[C@H]2C[N@](CCc3c([nH]c4ccccc34)[C@@](C(=O)OC)(c3cc4c(cc3OC)N(C)C3C45CCN4CC=C[C@](CC)(C45)[C@@H](O)[C@]3(O)C(=O)NC[C@H](C)O)C2)C1` (stereo partly drawn) [Example 22, (S)-2HPV]?
A: IC50 ([2]; Homo sapiens, BT-474, 72 h): 0.41 nM; IC50 [3, 10]: 1.83 nM

Q: `CC[C@H](C)[C@@H]([C@@H](CC(=O)N1CCC[C@H]1[C@H](OC)[C@@H](C)C(=O)N[C@@H](Cc1ccccc1)C(=O)NCCCOC(=O)[C@H](C)N)OC)N(C)C(=O)[C@@H](NC(=O)[C@H](C(C)C)N(C)C)C(C)C` [Example 50, AF HPA-L-Alanine] (NMe2Val-V[Dil][Dolaproine]F-X1) was tested. Which IC50 ([1]; Homo sapiens, SK-BR-3, 72 h, read-out: SKBR3 IC50, Table XIII, conjugates with high drug loading) did it give?
A: 0.32 nM

Q: And the IC50 ([2]; Homo sapiens, BT-474, 72 h)?
A: 0.85 nM

Q: And the IC50 ([3]; Homo sapiens, MCF7, 72 h, read-out: MCF7 IC50, Table XIII, conjugates with high drug loading)?
A: 8.5 nM

Q: What about the IC50 ([3]; read-out: MCF7 IC50, Table XIII, 72 h, conjugates with high drug loading) of the same compound?
A: 8.2 nM

Q: What about the IC50 ([4]; Homo sapiens, NCI-N87, 72 h) of the same compound?
A: 1.6 nM

Q: Which IC50 [1, 5] does the source give for “47 kDa PHF-BA-(AF HPA-L-Alanine)-SS-Trastuzumab [Example 94, Conjugate B]” here?
A: < 0.05 nM

Q: And the IC50 [2, 6]?
A: < 0.05 nM

Q: What about the IC50 [3, 7] of the same compound?
A: 7.4 nM

Q: And the IC50 [4, 6]?
A: ~0.3 nM

Q: Which results are given for “22 kDa PHF-BA-(AF HPA)-SS-Rituximab [Example 94, Conjugate C]”?
A: IC50 [2, 6]: 2.82 nM; IC50 [3, 7]: 4.17 nM; IC50 [4, 6]: 5.84 nM

Q: Which IC50 [1, 8] does the source give for “156 kDa PHF-BA (AF HPA-L-Alanine)-SS-(Trastuzumab-Fab′) [Example 96 Conjugate B]” here?
A: 1 nM

Q: What about the IC50 [3, 9] of the same compound?
A: > 100 nM

Q: How did the IC50 [1, 5] turn out when “22 kDa PHF-BA-(AF HPA-L-Alanine)-SS-Trastuzumab [Example 94, Conjugate A]” was run?
A: 0.008 nM

Q: And the IC50 [2, 6]?
A: 0.05 nM

Q: What about the IC50 [3, 7] of the same compound?
A: 9.5 nM

Q: What about the IC50 [4, 6] of the same compound?
A: 0.12 nM

Q: With `CCC1(O)C[C@H]2C[N@](CCc3c([nH]c4ccccc34)[C@@](C(=O)OC)(c3cc4c(cc3OC)N(C)C3C45CCN4CC=C[C@](CC)(C45)[C@@H](O)[C@]3(O)C(=O)NC[C@@H](C)O)C2)C1` (stereo partly drawn) [Example 23, (R)-2HPV] as the compound, how does the IC50 ([1]; Homo sapiens, SK-BR-3, 72 h, read-out: SKBR3 IC50, Table II) read?
A: 0.71 nM

Q: What about the IC50 ([2]; Homo sapiens, BT-474, 72 h) of the same compound?
A: 0.39 nM

Q: And the IC50 [3, 10]?
A: 1.71 nM

Source: patent publication US8821850B2, “Protein-polymer-drug conjugates” (Mersana Therapeutics, Inc., priority 2011, dated 2014)
